The subject of one data set is YuMM5.2 cells. The experiment in a line: Quantitative PCR of Wnt5A-β-catenin targets in melanoma tumor cells. It is filed as cell-based, mouse.
In the next data set the test system is YuMM5.2 tumors. Type of data set: in vivo. The procedure: (§1) Tumor models and cells. The mouse B16F10 and Yumm5.2 cell lines were purchased from American Type Culture Collection (ATCC, Manassas, VA). The mouse melanoma cell line BPD6 was established from iBP as described elsewhere (Zhao et al., Immunity 2018, 48, 147-160). B16F10 and BPD6 cells were maintained in Dulbecco's Modified Eagle's Medium (DMEM) supplemented with 8% fetal bovine serum (FBS), 0.1 mM non-essential amino acids (NEAA) and 1 mM sodium pyruvate. YuMM5.2 cells were maintained in DMEM/F12 media supplemented with 10% FBS. The cells were replated 3 times/week at a confluency of 1:10 and were kept in a 37° C. incubator at 5% CO2. For subcutaneous tumor models B16F10 (5×10^4 or 1×10^5), YuMM5.2 (5×10^5), and BPD6 (5×10^5) cells were injected into the right flank of the mice. For iBP mice, tumors were induced with a single intradermal dose of 4-hydroxytamoxifen in DMSO (150 μg/mouse). Tumors were measured thrice weekly using an electronic caliper. Tumor volumes were calculated by the formula V=L×(W×W)/2. For iBP mouse tumors, volumes were calculated by the formula V=L×B×H. For tumor growth rate studies mice were euthanized when the tumors reached a maximum size of 2000 mm^3.
(§2) Ovarlectomy and subcutaneous pellet Insertion. Ovariectomy was performed as previously described (Nelson et al., Science 2013, 342, 1094-1098). Eight days prior to tumor inoculation, 7 weeks old C57BL/6J or 5 weeks old (iBP) female mice were subjected to ovariectomy or sham surgery. Mice were anesthetized in an inhalation chamber (2% Isoflurane) and maintained in half the dose of isoflurane (1%) via nose cone throughout the surgical process. Prior to surgery, mice were administered a 5 mg/kg dose of carprofen subcutaneously. The area below the ribs was shaved with an electronic razor and the skin was sterilized by rubbing with betadine and alcohol (3× alternating). A horizontal incision was made through the skin above the ovary fat pad, followed by a vertical incision through the abdominal muscle wall. The ovary was externalized and removed using a cauterizing scissors (or returned if sham). Fat pad was replaced, and muscle walls were opposed and sutured (1-2 stitches). Following suturing, 1 drop of bupivacaine (0.25%) was added on top of the incision site. The skin was opposed, and a wound clip was placed on the incision site. This was repeated for the other ovary. The mouse was then removed from anesthesia and kept in a clean cage and monitored until conscious. The mice were monitored for recovery for 10 days.
(§3) Single cell isolation from tumors. Tumors were isolated, minced on a petri dish in media (DMEM+5% FBS), and then enzymatically digested by the addition of 100 μg/mL DNase I (D5025-150KU, Sigma-Aldrich) and 1 mg/mL collagenase (Collagenase A, Cat #10103586001, Sigma-Aldrich) for 30 mins-45 mins. For iBP models, isolated tumors were sliced into large chunks and subjected to mechanical digestion in a gentleMACS Dissociator for 30 seconds twice. Following this, tumors were digested with an enzyme cocktail containing DNase I, collagenase, and hyaluronidase (100 μg/mL) (H6254, Sigma-Aldrich) for 40 mins following a second round of mechanical digestion for 30 seconds (twice). The cells were then filtered through a 40 μm strainer to produce single cell suspensions and the enzymes were diluted by addition of additional media then spun down to remove media. Red blood cells were lysed with the addition of ACK lysis buffer (Cat #A1049201. ThermoFisher Scientific) for 4 mins at room temperature. Following red blood cell lysis, cells were washed with PBS before proceeding to flow cytometry staining or magnetic bead-based isolation.
(§4) Flow cytometry staining. Single cells suspensions (10^6 cells in 50 μL) were incubated with Live/dead fixable dead cell stain in PBS for 10 mins at 4° C. Cells were spun down at 1000×g and were incubated with anti-CD16/32 (Catalog #14-0161-85, ThermoFisher Scientific) in flow buffer (10 gms BSA in 1 L PBS+sodium azide) for 15 mins. […]

For the next data set, the system named is B16F10 tumors. The experiment in a line: B16F10 syngeneic melanoma tumor model in ovariectomized mice (tumor growth, flow cytometry). It is filed as in vivo, mouse. The protocol: as §1, §2, §3, §4
For orientation: A flow cytometer gives signals particle by particle.

The mark [1] stands for this setting: BMDM from Esr1^f/f, LysMCre versus Esr1^f/f.
[2] abbreviates: E2 vs placebo, ex vivo PMA and ionomycin 4 hr.
Where [3] appears, read: E2 vs placebo, ovariectomized C57BL/6J.
The mark [4] stands for this setting: Esr1^f/f and LysMCre control mice.
[5] abbreviates: Esr1^f/f, LysMCre mice (myeloid ERα knockout).
Setting [6] is: fulvestrant 25 mg/kg, E2 supplemented mice.

Like-named read-outs stand apart in the source and are kept apart here.

Consider 17β-estradiol [E2], for which, in the data set with YuMM5.2 cells (E2 (1 nM)), the “expression of WNT5A-β-catenin targets” value was “did not change”. The “tumor promoting effects of E2, tumor cells co-mixed with BMDM (1:1)” value in the data set with YuMM5.2 tumors (setting [1]) and in the data set with B16F10 tumors (setting [1]) was “significantly compromised” in each case. In addition, the “number of PD1+CD8+ T cells (exhausted T cells)” value in the data set on YuMM5.2 tumors (E2 treatment) is “increased”. For the same molecule, the “Granzyme B expression in CD8+ TILs” value with YuMM5.2 tumors (setting [2]) is listed as “reduced expression”. In addition, the “IFNγ in CD8+ TILs” value in the data set on YuMM5.2 tumors (setting [2]) is on record as “reduced expression”. Moreover, the “PD1 expression on CD8+ TILs” value in the data set with YuMM5.2 tumors (setting [2]) is “significantly more”. For the same molecule, in the data set with YuMM5.2 tumors (setting [2]), the “activation markers CD44 and CD69 on CD8+ TILs” value is recorded as “reduced expression”. In addition, the tumor growth entry with YuMM5.2 tumors (setting [3]) was “significantly increased”; with YuMM5.2 tumors (setting [4]), “increased”; in the data set on YuMM5.2 tumors (setting [5]) it was “not evident”; with B16F10 tumors (setting [3]) it was “significantly increased”; with B16F10 tumors (setting [4]) it was “increased”; with B16F10 tumors (setting [5]) it was “not evident”. Besides, the “infiltration of CD4+ FOXP3+ regulatory T cell subsets” value with YuMM5.2 tumors (E2 vs placebo, FIGS. 16D-16E B16F10 and YuMM5.2) is listed as “not observed”. The “percentage of Ly6C+/Ly6G+ MDSCs in tumors” value in the data set on YuMM5.2 tumors (flow cytometry, E2 vs placebo) is given as “no changes”; in the data set with B16F10 tumors (flow cytometry, E2 vs placebo), “no changes”. For the same molecule, in the data set on YuMM5.2 tumors (flow cytometry, Esr1^f/f animals), the “M1 (proinflammatory macrophages) in tumor infiltrating immune cells” value is “decrease”. The “infiltration of immune cells (CD45+)” value in the data set with B16F10 tumors (flow cytometry, E2 vs placebo) is “not impacted by treatment”. In the data set on B16F10 tumors (flow cytometry, E2 vs placebo), the “ratio of intratumoral M1 (MHCII^hi CD206−) to M2 (MHCII^lo CD206+/hi) macrophages” value is reported as “decreases”.

In the case of `C[C@]12CC[C@@H]3c4ccc(O)cc4C[C@@H](CCCCCCCCC[S+]([O-])CCCC(F)(F)C(F)(F)F)[C@H]3[C@@H]1CC[C@@H]2O` (some centres unmarked) [fulvestrant], the “expression of WNT5A-β-catenin targets” value in the data set on YuMM5.2 cells (E2 (1 nM)+fulvestrant (100 nM)) was “did not change”. Besides, the “inflammatory macrophages (MHCII^hi CD206−)” value in the data set with YuMM5.2 tumors (E2 treated mice co-treated with fulvestrant) was “increase”. Besides, the tumor growth result in the data set on YuMM5.2 tumors (setting [6]) and in the data set with B16F10 tumors (setting [6]) was “significantly reduced” each time. Further, the “number of PD1+CD8+ T cells (exhausted T cells)” value in the data set with YuMM5.2 tumors (fulvestrant treatment of E2 treated mice) is on record as “decrease”. Moreover, in the data set with YuMM5.2 tumors (mouse, in vivo), the “cytotoxic capabilities of tumor infiltrating T cells, Granzyme B (GZMB) expression” value is given as “increase”.

Values taken from patent US20240398831A1, “COMPOSITIONS COMPRISING SMALL MOLECULE REGULATORS OF TUMOR IMMUNITY AND METHODS OF USING SAME” (Duke University, priority 2021, published 2024).
